# Results published in patent US6875758B2, “Method of treating hyperlipidemic and hyperglycemic conditions in mammals using pregnadienols and pregnadienones” (Council of Scientific & Industrial Research, priority 1999, dated 2005).
# Tests used:
# Human serum LDL = test: Cu2+ induced oxidation of low density lipoprotein (TBA reactive lipid peroxides); format: biochemical; conditions: for MDA (Exp.): 16 hr at 37° C., pH 7.4; for generation of LDL lipid peroxide (in words): tested concentrations
# Experimental: Human serum LDL was oxidized with Cu^′2 in different concentrations of test compound in 0.05 mole PBS, pH 7.4 for 16 hr at 37° C. Thiobarbituric acid reactive lipid peroxides are measured by standard procedure. […] Cu^′2 induced oxidation in LDL lipids are mainly due to the free OH radical during incubation.
# [1] = Hydroxy (OH) radical formation in nonenzymatic system (Fe2+, ascorbate, H2O2, deoxyribose); format: biochemical
# [2] = system: cholesterol fed hyperlipidemic rats; test: Lipid peroxidation in cholesterol fed hyperlipidemic rats; format: in vivo
# [3] = system: isoproterneol induced myocardial necrosis in rat; test: Isoproterneol induced myocardial necrosis in rats; format: in vivo; conditions: isoproterneol 85 mg/kg + drug 25 mg/kg p.o.
# Source text: The underlying cause of myocardial infarction is believed to be the progressive deposition of lipids and fibrotic material into the arterial wall. These pregnadienols and pregnadienous also provided cardiac protection as assessed in isoproterneol induced myocardial necrosis in rat model, which produces myocardial infarction due to an increased blood pressure and heart rate.
# Triton treated rats = test: Cholesterol lowering in Triton treated rats; format: in vivo, Charles Foster rats
# Source text: The primary hypolipidemic effect of these compounds was established in triton induced hyperlipidemia in Charles Foster rats. […] The cholesterol lowering effect of some representative compounds of pregrenadienols and pregrenadienones as compared to clofibrate and gugulsterone in triton treated Charles Foster rats is described in Table-2.
# [4] = system: streptozotocin induced diabetic rats; test: Hypoglycemic activity in streptozotocin induced hyperglycemic rats; format: in vivo; conditions: 100 mg/kg p.o.
# Experimental: Hyperglycemia in rats was produced by streptozotocin treatment. The animals showing blood glucose levels between 250-350 mg/dl were selected. Blood samples were collected after treatment at intervals and blood glucose levels were estimated immediately.
# glucose loaded rats = test: Hypoglycemic activity in glucose loaded rats; format: in vivo, albino rats (Charles Foster strain); conditions: for Blood Glucose Level: 100 mg/kg p.o. + glucose 2.0 g/kg; for % inhibition compared to control (blood glucose): 100 mg/kg
# Experimental: The experiments were carried out with albino rats (Charles Foster strain) of either sex weighing 150-160 g. They were fed on laboratory diet prepared by M/s Lipton India Ltd. and maintained under 12 hr. light/dark cycle at 25±2° C.
# The animals were divided into eight groups, each of six rats; group I was given 1% gum acacia (0.1 ml/100 g body weight) intragastrically (p.o.) and the group II were given 3β-hydroxypregna-5,16-dien-20-one (2) in 1% gum acacia. Animals of group III were given the standard antidiabetic drug, tolbutamide in the similar fashion. 2.0 g/kg glucose was given p.o. to all the rats along with the vehicle/Compound/Standard antidiabetic drug. Blood samples were taken from retroorbital plexus at periodic intervals. Glucose levels in the blood samples were measured by glucose oxidase method [Bergmeyer and Benut, 1963 cited in “Methods of Enzymatic Analysis” ed. H. Bergmeyer, Verlag Chemie, GmBH, Weinheim, Beroster, pp123, Academic press, New York].
# [5] = Rattus norvegicus, ip, 50 mg/kg i.p., read-out: % Change S. Chol.
smiles,measurement,setting,value
Cc1c(C)c2c(c(C)c1O)CC[C@@](C)(CCC[C@H](C)CCC[C@H](C)CCCC(C)C)O2 [α-Tocopherol],% inhibition of LDL oxidation,Human serum LDL; 0.25 μmol/ml,(3) %
same,MDA (Exp.),Human serum LDL; 0.25 μmol/ml,44.7 ± 4.5 n mol MDA/mg protein
same,% inhibition of LDL oxidation,Human serum LDL; 0.5 μmol/ml,(13) %
same,MDA (Exp.),Human serum LDL; 0.5 μmol/ml,41.6 ± 4.0 n mol MDA/mg protein
same,MDA (Exp.),Human serum LDL; 1.0 μmol/ml,35.0 ± 3.8 n mol MDA/mg protein
same,% inhibition of LDL oxidation,Human serum LDL; 2.0 μmol/ml,(51) %
same,MDA (Exp.),Human serum LDL; 2.0 μmol/ml,24.3 ± 2.0 n mol MDA/mg protein
same,generation of LDL lipid peroxide (in words),Human serum LDL,inhibit the generation of LDL lipid peroxide in concentration dependent manner
same,% inhibition of OH radical formation,[1]; 1 μmol/ml,(23) %
same,OH radical formation,[1]; 1 μmol/ml,60.4 ± 7.0 nmol MDA/hr
same,% inhibition of OH radical formation,[1]; 2 μmol/ml,(42) %
same,OH radical formation,[1]; 2 μmol/ml,45.2 ± 3.3 nmol MDA/hr
same,% inhibition of OH radical formation,[1]; 3 μmol/ml,(59) %
same,OH radical formation,[1]; 3 μmol/ml,32.4 ± 3.5 nmol MDA/hr
same,% inhibition of OH radical formation,[1]; 4 μmol/ml,(65) %
same,OH radical formation,[1]; 4 μmol/ml,27.1 ± 2.8 nmol MDA/hr
same,% inhibition of OH radical formation,[1]; 5 μmol/ml,(73) %
same,OH radical formation,[1]; 5 μmol/ml,20.9 ± 2.0 nmol MDA/hr
"Cc1ccc(C)c(OCCCC(C)(C)C(=O)O)c1 [Gemfibrozil, reference compound]",HDL lipid peroxides,[2]; cholesterol + drug 25 mg/kg,134 ± 13 n mol MDA/dl
same,HDL lipid peroxides % reversal as compared with cholesterol fed rats,[2]; cholesterol + drug 25 mg/kg,(−3) %
same,LDL lipid peroxides,[2]; cholesterol + drug 25 mg/kg,568 ± 62 n mol MDA/dl
same,LDL lipid peroxides % reversal as compared with cholesterol fed rats,[2]; cholesterol + drug 25 mg/kg,(−6) %
same,Liver lipid peroxides,[2]; cholesterol + drug 25 mg/kg,253 ± 26 n mol MDA/g
same,Liver lipid peroxides % reversal as compared with cholesterol fed rats,[2]; cholesterol + drug 25 mg/kg,(−8) %
same,Serum lipid peroxides,[2]; cholesterol + drug 25 mg/kg,1161 ± 74 n mol MDA/dl
same,Serum lipid peroxides % reversal as compared with cholesterol fed rats,[2]; cholesterol + drug 25 mg/kg,(−5) %
same,VLDL lipid peroxides,[2]; cholesterol + drug 25 mg/kg,346 ± 10 n mol MDA/dl
same,VLDL lipid peroxides % reversal as compared with cholesterol fed rats,[2]; cholesterol + drug 25 mg/kg,(−9) %
same,"lipid peroxide levels in serum VLDL, LDL and liver (in words)","[2]; cholesterol fed animals, simultaneous treatment",failed to protect
same,MDA (Exp.),Human serum LDL; 2.5 μmol/ml,53.0 ± 6.0 n mol MDA/mg protein
same,% inhibition of LDL oxidation,Human serum LDL; 5.0 μmol/ml,(5) %
same,MDA (Exp.),Human serum LDL; 5.0 μmol/ml,48.8 ± 6.7 n mol MDA/mg protein
same,MDA (Exp.),Human serum LDL; 10.0 μmol/ml,43.8 ± 4.9 n mol MDA/mg protein
same,% inhibition of LDL oxidation,Human serum LDL; 20 μmol/ml,(16) %
same,MDA (Exp.),Human serum LDL; 20 μmol/ml,41.4 ± 5.0 n mol MDA/mg protein
same,generation of LDL lipid peroxide (in words),Human serum LDL,did not inhibit
same,% inhibition of OH radical formation,[1]; 5 μmol/ml,(4) %
same,OH radical formation,[1]; 5 μmol/ml,79.9 ± 6.8 nmol MDA/hr
same,% inhibition of OH radical formation,[1]; 10 μmol/ml,(5) %
same,OH radical formation,[1]; 10 μmol/ml,78.5 ± 8.0 nmol MDA/hr
same,% inhibition of OH radical formation,[1]; 20 μmol/ml,(8) %
same,OH radical formation,[1]; 20 μmol/ml,76.8 ± 7.4 nmol MDA/hr
same,% inhibition of OH radical formation,[1]; 30 μmol/ml,(8) %
same,OH radical formation,[1]; 30 μmol/ml,76.4 ± 3.8 nmol MDA/hr
same,% inhibition of OH radical formation,[1]; 40 μmol/ml,(11) %
same,OH radical formation,[1]; 40 μmol/ml,74.3 ± 6.3 nmol MDA/hr
same,% inhibition of OH radical formation,[1]; 50 μmol/ml,(13) %
same,OH radical formation,[1]; 50 μmol/ml,72.4 ± 8.0 nmol MDA/hr
same,Heart Ca. - ATPase % Protection,[3],30.2%
same,Heart Glycogen % Protection,[3],32.1%
same,Heart Lipid peroxide % Protection,[3],69.8%
same,Heart Phospholipase % Protection,[3],28.2%
same,Serum Alkaline Phosphatase % Protection,[3],41.2%
same,Serum CPK % Protection,[3],33.9%
same,Serum GOT % Protection,[3],24.9%
same,Serum GPT % Protection,[3],33.4%
"CC(=O)[C@H]1CC[C@H]2[C@@H]3CC=C4C[C@@H](O)CC[C@]4(C)[C@H]3CC[C@]12C [Compound 5, 3β-Hydroxypregna-5-en-20-one]",change in vivo at 100 mg/kg,"Triton treated rats; Rattus norvegicus, ip, 100 mg/kg i.p., read-out: % Change S. Chol.",-9%
"CC(=O)C1=CCC2C3CCC4=CC(=O)CC[C@]4(C)C3CC[C@]12C (stereo partly drawn) [Compound 3, 4,16-Dienpregna-3,20-dione]",change in vivo at 50 mg/kg,Triton treated rats; [5],-13%
"CC(=O)O[C@H]1CC[C@@]2(C)C(=CC[C@H]3[C@@H]4CC[C@H](C(C)=O)[C@@]4(C)CC[C@@H]32)C1 [Compound 4, 3β-Aceoxypregna-5-en-20-one]",% Change S. Chol.,Triton treated rats; 100 mg/kg i.p.,−12%
"CC(O)C1=CCC2C3CC=C4CC(O)CC[C@]4(C)C3CC[C@]12C (stereo partly drawn) [Compound 6, 5,16-Dien-pregnane-3,20-diol]",change in vivo at 50 mg/kg,Triton treated rats; [5],-10%
"CC=C1C(OC(C)=O)C[C@H]2[C@@H]3CC=C4CC(OC(C)=O)CC[C@]4(C)[C@H]3CC[C@]12C (stereo partly drawn) [Compound 7, 5,17(20)-Dienpregna-3,16-diol-diacetate]",% Change S. Chol.,Triton treated rats; 50 mg/kg i.p.,−33%
"CC(=O)O[C@H]1CC[C@@]2(C)C(=CC[C@@H]3[C@@H]2CC[C@]2(C)C(C(C)=O)=CC[C@@H]32)C1 [Compound 1, 3β-Acetoxypregna-5,16-dien-20-one]",change in vivo at 50 mg/kg,Triton treated rats; [5],-43%
"C/C=C1/C(=O)CC2C3CCC4=CC(=O)CC[C@]4(C)C3CC[C@]12C (stereo partly drawn) [Compound 9, Gugulsterone, reference compound]",change in vivo at 50 mg/kg,Triton treated rats; [5],-44%
"CCCCNC(=O)NS(=O)(=O)c1ccc(C)cc1 [Tolbutamide, reference compound]",Blood Glucose Level,[4]; 0 hr,292 ± 10 mg/dL
same,% lowering from zero hour value (blood glucose),[4]; 1 hr,(25.3) %
same,% lowering from zero hour value (blood glucose),[4]; 2 hr,(29.1) %
same,% lowering from zero hour value (blood glucose),[4]; 3 hr,(30.8) %
same,% lowering from zero hour value (blood glucose),[4]; 4 hr,(33.2) %
same,% lowering from zero hour value (blood glucose),[4]; 5 hr,(37.3) %
same,% lowering from zero hour value (blood glucose),[4]; 6 hr,(40.4) %
same,% lowering from zero hour value (blood glucose),[4]; 7 hr,(34.2) %
same,% lowering from zero hour value (blood glucose),[4]; 8 hr,(17.1) %
same,Blood Glucose Level,[4]; 24 hr,332 ± 26 mg/dL
same,Maximum Blood Glucose Change,glucose loaded rats; 100 mg/kg p.o. + glucose,−41.7%
same,Blood Glucose Level,glucose loaded rats; 0 min,38.15 ± 2.02 mg/dL
same,Blood Glucose Level,glucose loaded rats; 30 min,76.31 ± 6.29 mg/dL
same,Blood Glucose Level,glucose loaded rats; 60 min,27.26 ± 3.1 mg/dL
same,Blood Glucose Level,glucose loaded rats; 90 min,24.64 ± 1.92 mg/dL
same,Blood Glucose Level,glucose loaded rats; 120 min,23.07 ± 3.11 mg/dL
same,% inhibition compared to control (blood glucose),glucose loaded rats; 30 min,(35) %
same,% inhibition compared to control (blood glucose),glucose loaded rats; 60 min,(100) %
same,% inhibition compared to control (blood glucose),glucose loaded rats; 90 min,(100) %
same,% inhibition compared to control (blood glucose),glucose loaded rats; 120 min,(100) %
"C/C=C1/C(O)CC2C3CC=C4CC(O)CC[C@]4(C)C3CC[C@]12C (stereo partly drawn) [Compound 8, 5,17(20)-Dienpregna-3,16-diol]",change in vivo at 50 mg/kg,Triton treated rats; [5],-31%
